Measured values as given in BindingDB's records for patent US20240116873 (JIANGSU CHIATAI QINGJIANG PHARMACEUTICAL CO., LTD., 2024).

Key:
[1] = target: T1, Solute carrier family 22 member 12 (Homo sapiens, UniProt Q96S37); assay: Inhibitory Assay
T1 sequence (Q96S37 whole entry): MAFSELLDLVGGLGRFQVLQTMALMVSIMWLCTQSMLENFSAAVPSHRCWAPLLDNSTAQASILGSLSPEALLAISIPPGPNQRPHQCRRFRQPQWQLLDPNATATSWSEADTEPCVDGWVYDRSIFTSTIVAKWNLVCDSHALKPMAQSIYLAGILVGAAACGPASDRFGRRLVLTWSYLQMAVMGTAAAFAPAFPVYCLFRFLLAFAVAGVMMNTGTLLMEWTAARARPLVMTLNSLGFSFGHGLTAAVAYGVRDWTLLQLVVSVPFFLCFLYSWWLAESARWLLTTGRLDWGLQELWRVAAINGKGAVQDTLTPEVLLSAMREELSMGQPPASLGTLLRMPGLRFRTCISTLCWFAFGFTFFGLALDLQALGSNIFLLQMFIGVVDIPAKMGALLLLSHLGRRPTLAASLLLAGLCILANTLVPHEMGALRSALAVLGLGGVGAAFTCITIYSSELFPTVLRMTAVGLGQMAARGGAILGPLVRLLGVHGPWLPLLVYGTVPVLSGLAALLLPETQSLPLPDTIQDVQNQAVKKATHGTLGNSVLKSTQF

[2] = target: T2, Solute carrier family 22 member 11 (Homo sapiens, UniProt Q9NSA0); assay: Inhibitory Assay
T2 sequence (Q9NSA0 whole entry): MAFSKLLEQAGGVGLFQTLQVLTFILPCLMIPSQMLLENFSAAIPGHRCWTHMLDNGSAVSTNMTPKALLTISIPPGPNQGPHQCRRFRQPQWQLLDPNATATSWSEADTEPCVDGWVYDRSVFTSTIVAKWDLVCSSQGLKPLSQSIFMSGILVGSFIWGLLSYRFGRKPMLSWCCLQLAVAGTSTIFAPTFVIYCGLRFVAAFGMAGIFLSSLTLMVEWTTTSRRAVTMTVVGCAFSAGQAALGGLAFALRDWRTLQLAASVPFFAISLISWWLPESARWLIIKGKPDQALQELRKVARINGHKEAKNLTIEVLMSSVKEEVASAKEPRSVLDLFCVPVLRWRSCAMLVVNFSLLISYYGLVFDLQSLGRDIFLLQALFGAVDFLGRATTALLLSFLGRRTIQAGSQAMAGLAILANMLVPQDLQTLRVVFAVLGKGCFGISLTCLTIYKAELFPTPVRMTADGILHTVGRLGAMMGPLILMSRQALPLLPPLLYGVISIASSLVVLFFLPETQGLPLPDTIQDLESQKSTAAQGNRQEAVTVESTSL

| IC50 [1] | IC50 [2] | SMILES |
| --- | --- | --- |
| 3.15 µM | – | Cc1ccc2nccc(SC(C)(C)C(=O)NS(C)(=O)=O)c2c1 [US20240116873, Compound A] |
| – | 83.8 µM | CC(C)(Sc1ccnc2ccc(C(F)(F)F)cc12)C(=O)NS(C)(=O)=O [US20240116873, Compound D] |
| 2.79 µM | – | CC(C)(Sc1ccnc2ccc(F)cc12)C(=O)NS(C)(=O)=O [US20240116873, Compound B] |
| 3.42 µM | – | CC(C)(Sc1ccnc2ccc(Br)cc12)C(=O)NS(=O)(=O)c1cccs1 [US20240116873, Compound E] |
| 1.18 µM | – | CCS(=O)(=O)NC(=O)C(C)(C)Sc1ccnc2ccc(Br)cc12 [US20240116873, Compound C] |
